Measured values as given in patent US12624039B2, “BTK inhibitors” (DIZAL (JIANGSU) PHARMACEUTICAL CO., LTD., priority 2020, dated 2026).

Tests used:
[1] = target: T1, BTK(WT) in HEK293-BTK(WT) cells (Homo sapiens, UniProt Q06187); assay: HEK293-BTK(WT) p-BTK ELISA; format: cell-based; conditions: 1.5 hour
T1 construct: Full-length cDNAs of BTK containing C481S mutation was generated by mutagenesis; expressed in transfected cells
Method: (§1) The mutated BTK cDNAs were confirmed by sequencing. […] The transfected cells were selected in 2 μg/mL of puromycin. Stable polyclonal cell lines were confirmed by WB and used for further study. […] All the cells were maintained in a humidified incubator at 37° C. with 5% CO2.
(§2) The test compounds were added to the cells and cells were incubated for 1.5 hour at 37° C., 5% CO2. […] The plate was read on a Multiscan Spectrum reader set to 450 nm wavelengths. The data were processed in Graph Pad Prism software.

[2] = Hu Mic Clint; format: in vitro ADME, human; conditions: human, microsomes
[3] = target: T2, BTK-C481S in HEK293-BTK(C481S) cells (Homo sapiens, UniProt Q06187, C481S); assay: HEK293-BTK(C481S) p-BTK ELISA; format: cell-based; conditions: 1.5 hour
T2 construct: Full-length cDNAs of BTK containing C481S mutation was generated by mutagenesis; expressed in transfected cells
T2 sequence (Q06187 whole entry C481S): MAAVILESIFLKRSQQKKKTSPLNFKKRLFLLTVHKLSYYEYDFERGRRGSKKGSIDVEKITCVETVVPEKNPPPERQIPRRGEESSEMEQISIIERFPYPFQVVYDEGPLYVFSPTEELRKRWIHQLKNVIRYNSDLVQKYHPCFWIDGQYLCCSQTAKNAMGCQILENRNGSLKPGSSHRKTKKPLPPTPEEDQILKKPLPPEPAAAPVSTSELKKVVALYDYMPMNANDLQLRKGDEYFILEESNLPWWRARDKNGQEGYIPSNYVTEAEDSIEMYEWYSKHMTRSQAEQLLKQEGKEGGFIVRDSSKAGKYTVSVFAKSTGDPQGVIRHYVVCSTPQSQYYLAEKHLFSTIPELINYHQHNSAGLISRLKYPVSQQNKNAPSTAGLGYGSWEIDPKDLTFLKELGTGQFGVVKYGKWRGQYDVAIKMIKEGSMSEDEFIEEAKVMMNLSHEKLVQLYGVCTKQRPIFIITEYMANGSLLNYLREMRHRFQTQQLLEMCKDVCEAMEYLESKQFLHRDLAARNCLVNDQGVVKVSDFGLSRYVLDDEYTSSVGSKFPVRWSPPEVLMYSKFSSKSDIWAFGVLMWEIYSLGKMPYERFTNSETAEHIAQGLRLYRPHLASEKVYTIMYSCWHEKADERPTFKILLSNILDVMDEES
Method: as §1, §2

[4] = system: TMD-8 cells; assay: TMD-8 anti-proliferation assay; format: cell-based; conditions: 72 hours
Method: TMD-8 Anti-Proliferation Assay
TMD-8 cells were prepared in RPMI1640 media containing 10% foetal bovine, and plated in 384 well plates at 1500 cells per well, The cells were incubated overnight at 37° C., 5% CO2. After incubation, compounds with different concentration were added to the assay plates and incubate cells for a further 72 hours at 37° C., 5% CO2. Following 72 hours incubation, 15 μl of CellTiter 96® AQueous One Solution Reagent was added to each well and the plates incubated at room temperature for 30 mins. Cell viability was determined using the CellTiter-Glo (Promega, USA). The CellTiter-Glo assay was performed according to the manufacturer's instructions, and luminescence was determined in a multi-label reader (Envision, PerkinElmer, USA). The data were processed in XLfit software.

[5] = Log D determination (octanol/phosphate buffer); format: physicochemical; conditions: 25° C.
Method: 10 μL of working solution of each cassette is placed in order into respective 96-well rack position (Log D plate). Add 500 μL of saturated octanol into each vial of the above cap-less Log D plate followed by the addition of 500 μL of saturated phosphate buffer. Seal with a moulded PTFE/SIL 96-Well Plate Cover.
The samples are centrifuged at 4,000 rpm at 25° C. for 30 minutes to separate the phases. Pipette and syringe are used to pipette about 100 μL from the octanol and buffer phases to a new 96-well plate, respectively.
5 μL of octanol sample is transferred to a new 96-well plate, followed by addition of 495 μL of a mixture of H2O and acetonitrile containing internal standard (1:1) as 100 fold octanol samples. Vortex for 5 minutes at 1,000 rpm.
50 μL of 100 fold samples are transferred to new 96-well plate, followed by addition of 450 μL of a mixture of H2O and acetonitrile containing internal standard (1:1) as 1,000 fold octanol samples. Vortex for 5 minutes at 1,000 rpm.
The 1,000 folds octanol samples are serially diluted into 10,000, 100,000 and 1,000,000 folds with a mixture of H2O and acetonitrile containing internal standard (1:1).
50 μL of buffer samples are transferred to new 96-well plate, followed by addition of 450 μL of a mixture of H2O and acetonitrile containing internal standard (1:1) as 10 folds buffer samples. Vortex for 5 minutes at 1,000 rpm.
The 10 folds buffer samples are serially diluted into 100, 1,000 and 10,000 folds with a mixture of H2O and acetonitrile containing internal standard (1:1). The samples are evaluated by LC/MS/MS analysis. All compounds are tested in singlicate.
All calculations are carried out using Microsoft Excel. The concentrations of test compound in octanol/buffer solution are evaluated by LC/MS/MS. Calculate the Log D value of the test compound as follows:
[formula] DF means the dilution factor. Procedure for Protein Binding Measurements in Human Plasma by Using Equilibrium Dialysis

[6] = In vitro rat hepatocytes clearance assay; format: in vitro ADME
Method: In Vitro Rat/Human Hepatocytes Clearance Assay
Rat hepatocytes in male gender and human hepatocytes in mixed gender were obtained from commercial vendors (e.g., BioreclamationIVT) and stored at −150° C. prior to use. 10 mM stock solutions of tested compounds were prepared in DMSO. Thawing medium and supplement incubation medium (serum-free) were placed in a 37° C. water bath for at least 15 minutes prior to use. Stock solutions were diluted to 100 μM by combining 198 μL acetonitrile and 2 μL of 10 mM stock solution.
Vials of cryopreserved hepatocytes were removed from storage, ensured that vials remain at cryogenic temperatures. The vials were thawed in a 37° C. water bath with gently shaking. Vials were kept in a water bath until all ice crystals had dissolved and were no longer visible. Vials were sprayed with 70% ethanol before being transferred to a biosafety cabinet. And then the contents were poured into the 50 mL thawing medium conical tube. Vials were centrifuged at 100 g for 10 minutes at room temperature. Thawing medium was aspirated and hepatocytes were resuspended with serum-free incubation medium to yield ^˜1.5×10^6 cells/mL.
Cell viability and density were counted using a Trypan Blue exclusion, and then cells were diluted with serum-free incubation medium to a working cell density of 1×10^6 viable cells/ml. A portion of the hepatocytes at 1×10^6 viable cells/mL was boiled for 10 min prior to adding to the plate as negative control to eliminate the enzymatic activity so that little or no substrate turnover should be observed. The inactivated hepatocytes were used to prepare negative samples, which were used to exclude the misleading factor that resulted from instability of chemical itself.
Aliquots of 247.5 μL hepatocytes were dispensed into each well of a 96-well non-coated plate. The plate was placed in the incubator on an orbital shaker for approximately 10 minutes. Aliquots of 2.5 μL of the 100 μM test compounds were added into respective wells of the non-coated 96-well plate to start the reaction. This assay was performed in duplicate. The plate was incubated in the incubator on an orbital shaker for the designed time points. 20 μL of contents were transferred and mixed with 6 volumes (120 μL) of cold acetonitrile with internal standard to terminate the reaction at time points of 5, 15, 30, 45, 60, 80 and 100 minutes. Samples were centrifuges for 20 minutes at 4000 g and aliquots of 100 μl of the supernatants were used for LC-MS/MS analysis for measurement of test compounds.
In vitro hepatocyte clearance was estimated based on determination of elimination half-life (T1/2) of compounds disappearance from their initial concentrations. Peak area ratios of each compound (test or control) to IS was calculated. Ln (% Control) versus Incubation Time (min) curve was plotted, and the slope of a linear fitting line was calculated. Drug elimination rate constant k (min-1), T1/2 (min), and in vitro intrinsic clearance CLint (μL/min/E6) was calculated according to the following equations: k=−slope T1/2=0.693/k CLint=k/Chep • Where Chep (cells×μL-1) is the cell concentration in the incubation system. Procedure for Log D Determination

## Nc1nccn2c(C3CCC(CO)OC3)nc(-c3ccc(Oc4ccccc4)c(F)c3F)c12 (single isomer, unassigned) [Compound 4, (5-(8-amino-1-(2,3-difluoro-4-phenoxyphenyl)imidazo[1,5-a]pyrazin-3-yl)tetrahydro-2H-pyran-2-yl)methanol]
[1]
  IC50: 18.8 nM
[2]
  microsomal CLint: 7.44 µL/min/mg
[3]
  IC50: 84.2 nM
[4]
  IC50: 16.2 nM
[5]
  logD at 2 h: 3.1
[6]
  Rat Hep Clint: 7.2 μL/min/10∧6 cells
